Source: US9737520B2, “Aclidinium for use in improving the quality of sleep in respiratory patients” (Almirall, S.A., priority 2011, dated 2017)

What was measured:
[1] = test system: patients with moderate-to-severe COPD; test: Phase IIa randomised, double-blind, double-dummy, crossover trial; sleep difficulties score on patient diary card (Example 3); assay type: in vivo, human; settings: 15 days; for average score (+/-SEM), change in sleep difficulties score with respect to baseline: aclidinium 400 μg BID, tiotropium 18 μg QD, score 0-4
Description: In a Phase IIa randomised, double-blind, double-dummy, crossover trial, patients with moderate-to-severe COPD received inhaled aclidinium 400 μg BID, tiotropium 18 μg QD and placebo for 15 days, with a 9-15 day washout between treatment periods.
The incidence of sleep difficulties was recorded daily on a patient diary card. As in Example 1, the scores ranged from 0 for none to 1-4 for increasing severity of the sleep difficulties. The change in the score produced by each treatment with respect to the baseline was then measured.

[2] = to two inactive metabolites; cited from earlier work
respiratory patients = settings: administration in the evening versus only in the morning; cited from earlier work

For `O=C(O[C@H]1C[N+]2(CCCOc3ccccc3)CCC1CC2)C(O)(c1cccs1)c1cccs1` [aclidinium, 3(R)-(2-hydroxy-2,2-dithien-2-ylacetoxy)-1-(3-phenoxypropyl)-1-azoniabicyclo[2.2.2]octane], the “average score (+/-SEM), change in sleep difficulties score with respect to baseline” value [1] is listed as −0.123 (0.089) and the “hydrolysis in human plasma” value [2] is listed as “rapidly hydrolysed”.
For `C[N+]1(C)[C@@H]2C[C@@H](OC(=O)C(O)(c3cccs3)c3cccs3)C[C@H]1[C@@H]1O[C@@H]12` [tiotropium], the “bronchodilation during the night” value (respiratory patients) is listed as “does not produce more bronchodilation during the night”, the “statistical difference of the sleep difficulties score with placebo” value ([1]; aclidinium 400 μg BID (p<0.05), tiotropium 18 μg QD (p>0.05)) is listed as “no statistically significant difference” and the “average score (+/-SEM), change in sleep difficulties score with respect to baseline” value [1] is listed as −0.011 (0.091).
